1 molecule from PMC4815908 (Bioorganic & medicinal chemistry letters, 2015) can be followed below.

As a reminder, the IC50 is the point on the concentration scale where inhibition reaches its midpoint.

The test system of this test is P. falciparum 3D7 (chloroquine-sensitive). In words: in vitro growth inhibition assay, P. falciparum 3D7. In kind it is cell-based. The conditions noted are these: Plasmodium falciparum, 3D7, read-out: IC50 ± SEM 3D7.

For `[C-]#[N+]C(C)(C)C[C@@H]1C[C@H](C)[C@H]2CC[C@H](C)[C@@]3([N+]#[C-])CCC(=C)[C@@H]1[C@H]23` [compound 1, (−)-8,15-diisocyano-11(20)-amphilectene], the IC50 turned out to be 1.2 nM.
